From EPA's ToxValDB 9.5 (doi:10.2903/j.efsa.2009.1167)

Tests used:
Mus musculus = conditions: chronic; duration: 18 months; organ weight
Canidae = conditions: chronic, Dog Other
[1] = chronic, duration: 2 years, histopathology: nonneoplastic
[2] = reproduction developmental, reproduction

For CC(C1CC1)C(O)(Cn1cncn1)c1ccc(Cl)cc1 (stereo not given) [Cyproconazole], which NOAEL (Rattus norvegicus; chronic, organ weight) is on record?
Its NOAEL is 2 mg/kg-day.

What about the NOAEL (Rattus norvegicus; developmental, development) of the same molecule?
The NOAEL was 2 mg/kg-day.

Which results are given for CC(C)(C)[C@@H](O)/C(=C\c1ccc(Cl)cc1Cl)n1cncn1 [Diniconazole-M]?
NOAEL (Rattus norvegicus; [1]): 5 mg/kg-day; NOAEL (Rattus norvegicus; developmental, development): 5 mg/kg-day

Which NOAEL (Mus musculus) does the source give for Fc1ccc([C@@]2(Cn3cncn3)O[C@@H]2c2ccccc2Cl)cc1 [Epoxiconazole] here?
The NOAEL was 0.8 mg/kg-day.

And the NOAEL (Rattus norvegicus; [2])?
Its NOAEL is 2.3 mg/kg-day.

For C[Si](Cn1cncn1)(c1ccc(F)cc1)c1ccc(F)cc1 [Flusilazole], which NOAEL (Canidae; duration: 1 years) is on record?
Its NOAEL is 0.2 mg/kg-day.

And the NOAEL (Rattus norvegicus; reproduction developmental, organ weight)?
The NOAEL was 0.5 mg/kg-day.

With CCCCC(C#N)(Cn1cncn1)c1ccc(Cl)cc1 (stereo not given) [Myclobutanil] as the molecule, how does the NOAEL (Rattus norvegicus; [1]) read?
Its NOAEL is 2.5 mg/kg-day.

How did the NOAEL (Rattus norvegicus; developmental, development) turn out when CCCC1COC(Cn2cncn2)(c2ccc(Cl)cc2Cl)O1 (stereo not given) [Propiconazole] was run?
The NOAEL was 30 mg/kg-day.

What about the NOAEL (Rattus norvegicus; [2]) of the same molecule?
The NOAEL was greater than 2.8 mg/kg-day.

How did the NOAEL (Canidae; histopathology: nonneoplastic) turn out when CC(C)(C)C(O)(CCc1ccc(Cl)cc1)Cn1cncn1 (stereo not given) [Tebuconazole] was run?
Its NOAEL is 3 mg/kg-day.

CC(C)(C)C(=O)C(Oc1ccc(Cl)cc1)n1cncn1 (stereo not given) [Triadimefon] was tested. Which NOAEL (Rattus norvegicus; acute) did it give?
The NOAEL was 2 mg/kg-day.

And the NOAEL (Rattus norvegicus; subchronic, duration: 13 weeks)?
Its NOAEL is 3.4 mg/kg-day.

Which NOAEL (Canidae; duration: 2 years) does the source give for CC(C)(C)C(O)C(Oc1ccc(Cl)cc1)n1cncn1 (stereo not given) [Triadimenol] here?
Its NOAEL is 4 mg/kg-day.
